Laboratory results as given in ChEMBL document CHEMBL4184147, “Polyphenolic Phytochemicals in Cancer Prevention and Therapy: Bioavailability versus Bioefficacy” (J Med Chem, 2017).
pKi: −log10 of the molar value.

Tests used:
Lipid bilayer = assay: Induction of DOPC/n-decane bilayer property changes assessed as concentration required to double gramicidin-induced quencher influx rate by […]
[1] = Displacement of [3H]resveratrol from Sprague-Dawley rat brain plasma membranes after 1 hr by beta counting method; type: cell membranes

Compound	Activity (Lipid bilayer)	pKi [1]
COc1cc(CNC(=O)CCCC/C=C/C(C)C)ccc1O	18 µM	
O=C(O[C@@H]1Cc2c(O)cc(O)cc2O[C@@H]1c1ccc(O)c(O)c1)c1cc(O)c(O)c(O)c1 [EPICATECHIN GALLATE]		7.35 to 7.60
